The numbers were not newly measured in patent US5420016A, “Test device and kit for detecting helicobacter pylori” (Serim Research Corporation, priority 1994, dated 1995), which cites them from elsewhere.

The target in the data set is Urease from H. pylori (Helicobacter pylori, UniProt P69996). The conditions noted are these: read-out: Michaelis constant (urea); substrate urea; from Dunn, et al., J. Biol. Chem., 265:9464-9 (1990).
Chain of Urease from H. pylori (P69996 whole entry): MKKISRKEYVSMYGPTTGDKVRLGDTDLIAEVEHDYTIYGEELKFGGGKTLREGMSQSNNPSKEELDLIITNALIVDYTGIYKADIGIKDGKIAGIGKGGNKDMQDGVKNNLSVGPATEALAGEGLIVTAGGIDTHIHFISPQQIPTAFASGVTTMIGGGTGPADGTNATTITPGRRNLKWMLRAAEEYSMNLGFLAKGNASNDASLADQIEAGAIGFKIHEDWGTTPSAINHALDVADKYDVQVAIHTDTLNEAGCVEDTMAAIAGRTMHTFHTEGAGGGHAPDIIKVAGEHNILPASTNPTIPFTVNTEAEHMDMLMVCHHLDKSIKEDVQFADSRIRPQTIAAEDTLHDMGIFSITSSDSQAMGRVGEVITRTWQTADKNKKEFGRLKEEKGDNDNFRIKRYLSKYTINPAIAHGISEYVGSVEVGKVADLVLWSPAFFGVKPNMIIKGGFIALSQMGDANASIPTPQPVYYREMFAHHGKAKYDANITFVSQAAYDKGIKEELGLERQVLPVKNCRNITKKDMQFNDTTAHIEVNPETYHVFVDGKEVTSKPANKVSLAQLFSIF
Chain of Urease from H. pylori (P14916 whole entry, further chain): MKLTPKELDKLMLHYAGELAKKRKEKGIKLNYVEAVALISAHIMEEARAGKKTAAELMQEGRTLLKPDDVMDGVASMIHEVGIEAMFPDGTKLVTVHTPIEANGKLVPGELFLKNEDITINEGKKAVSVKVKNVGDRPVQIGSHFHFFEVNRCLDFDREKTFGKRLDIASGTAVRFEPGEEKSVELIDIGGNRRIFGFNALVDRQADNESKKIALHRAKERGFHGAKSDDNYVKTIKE

`NC(N)=O` [urea]: the Km was 300 µM.
